Reference: PMC6271965, “Inhibition of GlcNAc-Processing Glycosidases by C-6-Azido-NAG-Thiazoline and Its Derivatives” (Molecules, 2014)
Like-named read-outs stand apart in the source and are kept apart here.

Key:
Assay in all cases: pNP-β-GlcNAc hydrolysis, kinetic assay at […] nm
Format in all cases: biochemical
[1] = target: T1, O-GlcNAcase from Bacteroides thetaiotaomicron (Bacteroides thetaiotaomicron, UniProt Q89ZI2)
T1 construct: gene BT_4395; gene from D. Vocadlo; GH84
T1 sequence (Q89ZI2 22-737): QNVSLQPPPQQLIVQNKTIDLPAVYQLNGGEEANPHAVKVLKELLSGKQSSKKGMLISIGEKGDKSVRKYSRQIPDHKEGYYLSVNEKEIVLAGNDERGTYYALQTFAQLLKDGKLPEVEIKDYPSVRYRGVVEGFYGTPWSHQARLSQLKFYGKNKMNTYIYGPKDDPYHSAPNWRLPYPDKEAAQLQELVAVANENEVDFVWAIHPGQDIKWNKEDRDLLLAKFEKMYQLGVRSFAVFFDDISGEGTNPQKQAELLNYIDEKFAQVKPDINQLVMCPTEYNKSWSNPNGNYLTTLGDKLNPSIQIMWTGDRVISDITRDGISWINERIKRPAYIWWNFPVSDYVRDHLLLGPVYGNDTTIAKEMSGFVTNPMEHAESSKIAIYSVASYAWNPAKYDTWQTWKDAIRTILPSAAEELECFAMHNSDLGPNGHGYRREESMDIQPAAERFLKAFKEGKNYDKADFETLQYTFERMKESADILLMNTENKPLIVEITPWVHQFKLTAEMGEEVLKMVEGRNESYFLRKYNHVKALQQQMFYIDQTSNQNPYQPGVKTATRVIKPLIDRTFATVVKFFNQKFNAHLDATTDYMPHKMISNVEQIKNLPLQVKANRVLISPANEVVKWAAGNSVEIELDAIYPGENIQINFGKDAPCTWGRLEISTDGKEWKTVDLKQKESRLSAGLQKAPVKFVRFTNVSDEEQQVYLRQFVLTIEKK

[2] = target: T2, β-N-acetylhexosaminidase from Streptomyces plicatus (Streptomyces plicatus, UniProt O85361); conditions: read-out: KI [μM] / NAG-thiazoline (1)
T2 construct: gene hex; synthetic gene, His6-tagged fusion in pET-15b (NdeI/BamHI), E. coli BL21(DE3) pLysS, Ni-NTA purified; GH20
T2 sequence (O85361 1-506): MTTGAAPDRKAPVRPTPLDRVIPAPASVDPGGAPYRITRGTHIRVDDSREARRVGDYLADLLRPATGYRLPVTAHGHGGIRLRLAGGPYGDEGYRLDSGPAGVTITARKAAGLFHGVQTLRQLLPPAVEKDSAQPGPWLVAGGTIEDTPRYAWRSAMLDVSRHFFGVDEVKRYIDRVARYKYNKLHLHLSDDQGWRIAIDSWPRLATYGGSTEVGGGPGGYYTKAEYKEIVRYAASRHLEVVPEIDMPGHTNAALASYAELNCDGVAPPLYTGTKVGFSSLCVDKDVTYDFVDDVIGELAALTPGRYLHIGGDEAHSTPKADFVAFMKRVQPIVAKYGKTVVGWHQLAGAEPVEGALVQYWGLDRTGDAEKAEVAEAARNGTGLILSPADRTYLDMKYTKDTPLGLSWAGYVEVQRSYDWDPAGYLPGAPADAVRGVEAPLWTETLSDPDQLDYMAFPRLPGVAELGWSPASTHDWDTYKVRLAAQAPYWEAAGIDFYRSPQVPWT

[3] = target: T3, β-N-acetylhexosaminidase from Talaromyces flavus (Talaromyces flavus, UniProt G5DAA0)
T3 construct: recombinant, secreted from Pichia pastoris, purified by cation exchange chromatography; GH20
T3 sequence (G5DAA0 18-628): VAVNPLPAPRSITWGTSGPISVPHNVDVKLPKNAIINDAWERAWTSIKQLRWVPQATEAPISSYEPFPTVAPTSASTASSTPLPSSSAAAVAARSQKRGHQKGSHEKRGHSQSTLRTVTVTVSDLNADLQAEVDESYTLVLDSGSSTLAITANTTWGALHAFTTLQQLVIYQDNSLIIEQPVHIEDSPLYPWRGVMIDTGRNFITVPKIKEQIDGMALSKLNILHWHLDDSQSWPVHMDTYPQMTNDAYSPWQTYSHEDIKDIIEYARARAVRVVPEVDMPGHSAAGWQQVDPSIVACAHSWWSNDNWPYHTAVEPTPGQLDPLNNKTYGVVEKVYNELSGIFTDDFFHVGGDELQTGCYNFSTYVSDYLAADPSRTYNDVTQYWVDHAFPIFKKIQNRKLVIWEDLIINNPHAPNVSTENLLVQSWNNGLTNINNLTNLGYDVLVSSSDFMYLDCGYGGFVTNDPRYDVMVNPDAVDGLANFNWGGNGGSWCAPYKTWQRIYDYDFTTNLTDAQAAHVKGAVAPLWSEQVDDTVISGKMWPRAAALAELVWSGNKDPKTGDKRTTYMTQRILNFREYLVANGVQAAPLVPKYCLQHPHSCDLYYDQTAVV

[4] = target: T4, human O-GlcNAcase (Homo sapiens, UniProt O60502); conditions: read-out: KI [μM] / C-6-azido-NAG-thiazoline (2)
T4 construct: gene OGA; gene from D. Vocadlo; GH84
T4 sequence (O60502 1-916): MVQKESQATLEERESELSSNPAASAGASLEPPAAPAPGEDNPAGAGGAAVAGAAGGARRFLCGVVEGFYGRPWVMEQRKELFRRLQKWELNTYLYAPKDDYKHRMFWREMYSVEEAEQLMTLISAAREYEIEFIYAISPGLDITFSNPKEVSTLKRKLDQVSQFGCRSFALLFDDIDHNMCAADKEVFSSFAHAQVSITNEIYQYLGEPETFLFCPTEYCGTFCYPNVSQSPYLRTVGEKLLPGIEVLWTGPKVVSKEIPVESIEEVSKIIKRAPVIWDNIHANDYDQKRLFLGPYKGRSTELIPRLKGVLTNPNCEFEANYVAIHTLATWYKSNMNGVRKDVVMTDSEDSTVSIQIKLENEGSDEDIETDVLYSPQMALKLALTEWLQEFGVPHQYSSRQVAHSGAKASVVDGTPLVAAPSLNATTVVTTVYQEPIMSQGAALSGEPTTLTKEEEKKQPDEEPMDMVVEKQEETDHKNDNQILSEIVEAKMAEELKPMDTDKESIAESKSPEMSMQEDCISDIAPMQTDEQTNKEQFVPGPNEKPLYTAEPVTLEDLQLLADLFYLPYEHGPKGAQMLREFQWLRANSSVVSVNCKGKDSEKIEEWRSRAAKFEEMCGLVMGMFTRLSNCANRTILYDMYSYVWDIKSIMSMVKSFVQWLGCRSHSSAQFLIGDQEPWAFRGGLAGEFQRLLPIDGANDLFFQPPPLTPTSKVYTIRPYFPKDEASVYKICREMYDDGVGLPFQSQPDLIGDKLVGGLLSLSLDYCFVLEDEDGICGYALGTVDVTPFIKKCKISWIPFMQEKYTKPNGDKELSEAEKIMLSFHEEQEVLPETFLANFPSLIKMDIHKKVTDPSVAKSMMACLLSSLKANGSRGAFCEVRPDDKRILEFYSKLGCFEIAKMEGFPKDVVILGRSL

[5] = read-out: KI [μM] / NAG-thiazoline (1)
[6] = read-out: KI [μM] / C-6-azido-NAG-thiazoline (2)

| SMILES | Ki [1, 5] | Ki [2] | Ki [3, 5] | Ki [1, 6] | Ki [4] | Ki [3, 6] |
| --- | --- | --- | --- | --- | --- | --- |
| CC1=N[C@@H]2[C@@H](O)[C@H](O)[C@@H](CO)O[C@@H]2S1 [compound 1, 1,2-Dideoxy-2'-methyl-α-D-glucopyrano-[2,1-d]-∆2'-thiazoline] | 0.029 ± 0.003 µM | 24 ± 5 µM | 42.7 ± 1.9 µM | – | – | – |
| CC1=N[C@@H]2[C@@H](O)[C@H](O)[C@@H](CN=[N+]=[N-])O[C@@H]2S1 [compound 2, 6-Azido-1,2-dideoxy-2'-methyl-α-D-glucopyrano-[2,1-d]-∆2'-thiazoline] | – | – | – | 3.1 ± 0.3 µM | 19.3 ± 11.9 µM | 212 ± 16.3 µM |
